# Results taken from PMC7615677 (Science translational medicine, 2023).
# Read-outs that look alike come from different tables or passages of the source.
# Experiments:
# In vivo pharmacokinetics = assay: In vivo pharmacokinetics; parameters: species or system female golden Syrian hamsters; details: for AUC(0-t): read-out: AUC0-24 (first dose); for AUC: read-out: AUC96-120 (last dose)
# Experimental: Additional PK studies were also conducted by WuXi AppTec Co, Ltd (Shanghai, China) according to protocols reviewed and approved by DNDi. […] IV and oral formulations for rats, mice and hamsters were the same as described above. For dogs, the IV dose was administered in saline containing 2% DMSO and 3% Solutol HS-15 and the oral formulation was as described above. Blood was sampled up to 48 h post-dose into vials containing potassium EDTA as an anticoagulant, proteins were precipitated with acetonitrile and plasma was separated and assayed by LC-MS.
# Single dose pharmacokinetic parameters (clearance, volume of distribution and half-life) were initially estimated using non-compartmental methods and oral bioavailability was calculated using the ratio of the dose corrected AUC after oral dosing relative to that after IV administration. […] Where a full concentration versus time profile was obtained from a single animal, parameters were estimated for each animal and mean and standard deviations calculated. In the case of mice where sparse sampling was used with multiple animals per time point, the data analysis was conducted using the mean profile.
# [1] = pKa and Log D7.4 determination; format: physicochemical
# Experimental: The ionization constant (pKa), octanol-pH 7.4 buffer partition coefficient (Log D7.4), solubility in biorelevant buffers (FaSSIF-V2, FeSSIF-V2, FaSSGF and pH 7.4 phosphate buffered saline (PBS)) and Caco-2 permeability were determined according to previously published methods ([10]).
# [2] = In vitro cytotoxicity assay; format: cell-based; details: mouse, 3T3 mouse embryo fibroblasts
# [3] = In vitro metabolism, cryopreserved hepatocytes; format: in vitro ADME, dog
# Experimental: (§1) Cell viability was determined using trypan blue exclusion. The incubation was performed on a plate shaker (Heidolph Titrimax 100, 900 rpm) placed in a humidified incubator (37°C, 7.5% CO2) for 240 min. The reaction was initiated with the addition of compound with samples taken periodically and quenched with the addition of acetonitrile containing internal standards (metolazone and diazepam). Quenched samples were maintained on ice for approximately 20-30 min, centrifuged (for 5 min) and the supernatant analyzed by LC-MS.
# (§2) In vitro intrinsic clearance (CLint, μL/min/mg or μL/min/10^6 cells) values were calculated from the apparent first order degradation rate constant divided by the microsome concentration or the hepatocyte cell number (10^6 viable cells/mL). In vitro CLint values were then divided by the fraction unbound in the in vitro test system (to give CLint,u) and scaled to in vivo values (mL/min/kg) using published physiological scaling factors ([28]). Blood clearance in each species was then calculated using the well-stirred model of hepatic extraction (equation 2) where Q is the hepatic blood flow and fu,blood is calculated from fu,plasma/B:P: [2] PredictedCLblood=Q x fu,blood x CLint,u/Q+fu,blood x CLint,u
# (§3) Blood clearance values were converted to plasma clearance by multiplying by the B:P.
# [4] = In vitro metabolism, cryopreserved hepatocytes; format: in vitro ADME, human
# Experimental: as §1, §2, §3
# [5] = Compartmental PK modelling and repeat-dose simulation; parameters: species or system hamsters
# Experimental: To support pharmacokinetic/pharmacodynamic (PKPD) analysis, data in mice and hamsters were also analyzed by compartmental modeling using Phoenix WinNonlin (version 8.2; Certara, Princeton, NJ). For each dose level, an extravascular dosing, single compartment disposition model was fit to the combined Day 1/Day 5 repeat dose plasma data. The model was parameterized with a single volume term (V/F), and with first order absorption (K01) and elimination (K10) rate constants. Initial values for the parameter estimates were obtained by fitting of the model to the Day 1 data at the lowest dose level only, and the same initial values were used across the dose range. Experimental data used in model fitting were the mean concentration-time profiles and the average dose administered to each group. The weighting scheme (1/Y2 for mouse and 1/Y for hamster) was selected based on goodness of fit of the peak region of the experimental profiles. Parameter estimates obtained through fitting were used to simulate full repeat-dose plasma concentration-time profiles with both once-daily and twice-daily (dosing at […]) administration at each dose level and treatment duration used in the efficacy studies.
# [6] = female, golden Syrian, hamster, plasma, hamsters, oral 12.5 mg/kg qd, 5 days
# [7] = female, golden Syrian, hamster, plasma, hamsters, oral 25 mg/kg qd, 5 days
# [8] = hamster, plasma, po, Hamsters, 12.5 mg/kg, fitted
# [9] = hamster, plasma, po, Hamsters, 25 mg/kg, fitted
# [10] = hamster, plasma, po, Hamsters, 50 mg/kg, fitted
# [11] = hamsters, 3.125 mg/kg bid, 5 days, simulated
# [12] = hamsters, 12.5 mg/kg bid, 5 days, simulated
# [13] = hamsters, 12.5 mg/kg qd, 5 days, simulated
# [14] = hamsters, 25 mg/kg qd, 5 days, simulated
# [15] = hamsters, 50 mg/kg qd, 5 days, simulated
smiles,measurement,setting,value
Cc1[nH]c2nc(N)nc(C)c2c1-c1ccc(C#N)c2c1OCO2 [DNDI-6174],Cmax at 5 days,In vivo pharmacokinetics; [6],3530 ng/mL
same,AUC(0-t),In vivo pharmacokinetics; [6],22900 ng·h/mL
same,AUC,In vivo pharmacokinetics; [6],30200 ng·h/mL
same,Cmax at 5 days,In vivo pharmacokinetics; [7],7790 ng/mL
same,AUC(0-t),In vivo pharmacokinetics; [7],44200 ng·h/mL
same,AUC,In vivo pharmacokinetics; [7],77400 ng·h/mL
same,Cmax,"In vivo pharmacokinetics; female, golden Syrian, hamster, plasma, hamsters, oral 25 mg/kg qd, 5 days, read-out: Cmax (Day 1)",4560 ng/mL
same,AUC(0-t),"In vivo pharmacokinetics; female, golden Syrian, hamster, plasma, hamsters, oral 50 mg/kg, single dose on day 1 only",145000 ng·h/mL
same,Cmax,"In vivo pharmacokinetics; female, golden Syrian, hamster, plasma, hamsters, oral 50 mg/kg, single dose on day 1 only, read-out: Cmax (Day 1)",13200 ng/mL
same,Tmax,"In vivo pharmacokinetics; female, golden Syrian, plasma, Hamster, oral 12.5 mg/kg",2.7 h
same,half-life,"In vivo pharmacokinetics; female, golden Syrian, plasma, Hamster, oral 12.5 mg/kg, read-out: Apparent t1/2 (converted)",2.6 h
same,Cmax,"In vivo pharmacokinetics; female, golden Syrian, plasma, Hamster, oral 12.5 mg/kg, read-out: Cmax",2870 ng/mL
same,AUC(0-inf),"In vivo pharmacokinetics; female, golden Syrian, plasma, Hamster, oral 12.5 mg/kg, read-out: Plasma AUC0-∞",21200 ng·h/mL
same,Cmax (Day 1),"In vivo pharmacokinetics; hamsters, oral 12.5 mg/kg qd, 5 days",2870 ng/mL
same,pKa (measured),[1],5.58
same,Log D7.4 (measured),[1]; octanol-pH 7.4 buffer,2.57
same,logD,"[1]; octanol/pH 7.4 buffer, pH 7.4, octanol-pH 7.4 buffer, read-out: Log D7.4 (measured)",2.6
same,pKa,[1]; read-out: pKa (measured),5.6
same,CC50,[2],> 37 µM
same,Hepatocyte predicted in vivo CLplasma,[3]; Dog,0.30 mL/min/kg
same,hepatocyte CLint at 0.5 µM,"[3]; dog, cryopreserved hepatocytes",1 ± 0.27 µL/min/1e6 cells
same,Hepatocyte predicted in vivo CLplasma,[4]; Human,0.31 mL/min/kg
same,hepatocyte CLint at 0.5 µM,"[4]; human, cryopreserved hepatocytes",1.1 ± 0.27 µL/min/1e6 cells
same,K01,"[5]; Hamsters, 12.5 mg/kg, fitted",0.321 h⁻¹
same,K10,"[5]; Hamsters, 12.5 mg/kg, fitted",0.336 h⁻¹
same,V/F,"[5]; Hamsters, 12.5 mg/kg, fitted",1.57 L/kg
same,K01,"[5]; Hamsters, 25 mg/kg, fitted",0.298 h⁻¹
same,K10,"[5]; Hamsters, 25 mg/kg, fitted",0.295 h⁻¹
same,V/F,"[5]; Hamsters, 25 mg/kg, fitted",1.75 L/kg
same,K01,"[5]; Hamsters, 50 mg/kg, fitted",0.660 h⁻¹
same,K10,"[5]; Hamsters, 50 mg/kg, fitted",0.184 h⁻¹
same,V/F,"[5]; Hamsters, 50 mg/kg, fitted",1.83 L/kg
same,Cmax,"[5]; hamster, plasma, po, 3.125 mg/kg, hamsters, 3.125 mg/kg bid, 5 days, simulated",341 ng/mL
same,Cmax,"[5]; hamster, plasma, po, 12.5 mg/kg, Hamsters, fitted",2850 ng/mL
same,Cmax,"[5]; hamster, plasma, po, 12.5 mg/kg, hamsters, 12.5 mg/kg bid, 5 days, simulated",3690 ng/mL
same,AUC,"[5]; hamster, plasma, po, 12.5 mg/kg, hamsters, 12.5 mg/kg bid, 5 days, simulated, read-out: AUC24 ss",47600 ng·h/mL
same,AUC,"[5]; hamster, plasma, po, 12.5 mg/kg, hamsters, 12.5 mg/kg bid, 5 days, simulated, read-out: Cum AUC",238000 ng·h/mL
same,Cmax,"[5]; hamster, plasma, po, 12.5 mg/kg, hamsters, 12.5 mg/kg qd, 5 days, simulated",2880 ng/mL
same,AUC,"[5]; hamster, plasma, po, 12.5 mg/kg, hamsters, 12.5 mg/kg qd, 5 days, simulated, read-out: AUC24 ss",23800 ng·h/mL
same,AUC,"[5]; hamster, plasma, po, 12.5 mg/kg, hamsters, 12.5 mg/kg qd, 5 days, simulated, read-out: Cum AUC",119000 ng·h/mL
same,Cmax,"[5]; hamster, plasma, po, 25 mg/kg, Hamsters, fitted",5280 ng/mL
same,Cmax at 5 days,"[5]; hamster, plasma, po, 25 mg/kg, hamsters, 25 mg/kg qd, 5 days, simulated",5330 ng/mL
same,AUC,"[5]; hamster, plasma, po, 25 mg/kg, hamsters, 25 mg/kg qd, 5 days, simulated, read-out: AUC24 ss",48600 ng·h/mL
same,AUC,"[5]; hamster, plasma, po, 25 mg/kg, hamsters, 25 mg/kg qd, 5 days, simulated, read-out: Cum AUC",243000 ng·h/mL
same,Cmax,"[5]; hamster, plasma, po, 50 mg/kg, Hamsters, fitted",15600 ng/mL
same,Cmax,"[5]; hamster, plasma, po, 50 mg/kg, hamsters, 50 mg/kg qd, 5 days, simulated",17000 ng/mL
same,AUC,"[5]; hamster, plasma, po, 50 mg/kg, hamsters, 50 mg/kg qd, 5 days, simulated, read-out: AUC24 ss",148000 ng·h/mL
same,AUC at 5 days,"[5]; hamster, plasma, po, 50 mg/kg, hamsters, 50 mg/kg qd, 5 days, simulated, read-out: Cum AUC",742000 ng·h/mL
same,AUC(0-inf),[5]; [8],23600 ng·h/mL
same,CL/F,[5]; [8],8.75 mL/min/kg
same,AUC(0-inf),[5]; [9],48400 ng·h/mL
same,CL/F,[5]; [9],8.58 mL/min/kg
same,AUC(0-inf),[5]; [10],140000 ng·h/mL
same,CL/F,[5]; [10],5.62 mL/min/kg
same,Cmax (unbound),[5]; [11],31 ng/mL
same,Cmin,[5]; [11],13 ng/mL
same,Cmin (unbound),[5]; [11],1 ng/mL
same,AUC24 ss (unbound),[5]; [12],4280 ng·h/mL
same,Cav ss,[5]; [12],1980 ng/mL
same,Cav ss (unbound),[5]; [12],178 ng/mL
same,Cmax (unbound),[5]; [12],332 ng/mL
same,Cmin,[5]; [12],238 ng/mL
same,Cmin (unbound),[5]; [12],21 ng/mL
same,Cum AUC (unbound),[5]; [12],21400 ng·h/mL
same,AUC24 ss (unbound),[5]; [13],2140 ng·h/mL
same,Cav ss,[5]; [13],991 ng/mL
same,Cav ss (unbound),[5]; [13],89 ng/mL
same,Cmax (unbound),[5]; [13],259 ng/mL
same,Cmin,[5]; [13],23 ng/mL
same,Cmin (unbound),[5]; [13],2 ng/mL
same,Cum AUC (unbound),[5]; [13],10700 ng·h/mL
same,AUC24 ss (unbound),[5]; [14],4370 ng·h/mL
same,Cav ss,[5]; [14],2020 ng/mL
same,Cav ss (unbound),[5]; [14],182 ng/mL
same,Cmax (unbound),[5]; [14],480 ng/mL
same,Cmin,[5]; [14],83 ng/mL
same,Cmin (unbound),[5]; [14],7 ng/mL
same,Cum AUC (unbound),[5]; [14],21900 ng·h/mL
same,AUC24 ss (unbound),[5]; [15],13400 ng·h/mL
same,Cav ss,[5]; [15],6190 ng/mL
same,Cav ss (unbound),[5]; [15],557 ng/mL
same,Cmax (unbound),[5]; [15],1530 ng/mL
same,Cmin,[5]; [15],463 ng/mL
same,Cmin (unbound),[5]; [15],42 ng/mL
same,Cum AUC (unbound),[5]; [15],66800 ng·h/mL
